Source: patent publication EP1140925B1, “(3,4 DIHYDRO-2H-BENZO[1,4] OXAZINYL-METHYL)- 3-(1H-INDOL-3- YL)-ALKYL -AMINES” (Wyeth, priority 1999, dated 2000)
Read-outs that look alike come from different tables or passages of the source.

Columns and labels:
serotonin transporter = biological target: T1, serotonin transporter (Rattus norvegicus, UniProt P31652); experiment: Serotonin transporter affinity, 3H-paroxetine binding to frontal cortical membranes; set-up: species or system Sprague-Dawley rats; conditions: 3H-paroxetine 0.1 nM, head also allows % Inh. @.1 µM
T1 construct: frontal cortical membranes prepared from male Sprague-Dawley rats; from tissue; host or cells: frontal cortex membranes of male Sprague-Dawley rats
Method: Briefly, frontal cortical membranes prepared from male Sprague-Dawley rats were incubated with ^3H-paroxetine (0.1 nM) for 60 min at 25°C. All tubes also contained either vehicle, test compound (one to eight concentrations), or a saturating concentration of fluoxetine (10 µM) to define specific binding. All reactions were terminated by the addition of ice cold Tris buffer followed by rapid filtration using a Tom Tech filtration device to separate bound from free ^3H-paroxetine.

human 5-HT1A receptor = biological target: T2, human 5-HT1A receptor (Homo sapiens, UniProt P08908); experiment: 5-HT1A receptor binding assay with [3H]8-OH-DPAT in CHO cell membranes; conditions: [3H]8-OH-DPAT 1.5 nM, membranes of CHO cells expressing human 5-HT1A receptor
T2 construct: expressed in transfected cells
T2 sequence (P08908 1-422): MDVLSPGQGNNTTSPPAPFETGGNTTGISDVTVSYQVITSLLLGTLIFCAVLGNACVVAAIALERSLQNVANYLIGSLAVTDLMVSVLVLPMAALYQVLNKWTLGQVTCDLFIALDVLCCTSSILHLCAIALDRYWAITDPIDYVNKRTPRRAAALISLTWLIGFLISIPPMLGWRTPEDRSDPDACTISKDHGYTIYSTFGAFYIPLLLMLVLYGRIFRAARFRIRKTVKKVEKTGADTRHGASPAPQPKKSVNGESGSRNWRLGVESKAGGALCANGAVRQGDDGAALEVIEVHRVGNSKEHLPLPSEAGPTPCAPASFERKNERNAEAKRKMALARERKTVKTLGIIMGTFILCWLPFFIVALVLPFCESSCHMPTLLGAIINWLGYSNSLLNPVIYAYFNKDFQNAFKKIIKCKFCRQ
Method: A stable Chinese hamster ovary cell line expressing the human 5-HT1A receptor subtype (5H-HT1A.CHO cells) was employed throughout this procedure. Cells were maintained in DMEM supplemented with 10% fetal calf serum, non-essential amino acids and penicillin/ streptomycin.
Cells were grown to 95-100% confluency as a monolayer before membranes were harvested for binding studies. Cells were gently scraped from the culture plates, transferred to centrifuge tubes, and washed twice by centrifugation (at 2000 rpm for 10 min., 4°C) in buffer (50 mM Tris; pH 7.5). The resulting pellets were aliquoted and stored at -80•C until needed. On the day of assay, the cells were thawed on ice, and resuspended in buffer. Studies were conducted using [^3H]8-OH-DPAT as the radioligand. The binding assay was performed in 96 well microtiter plates in a final total volume of 250 µL of buffer. […] Non-specific binding was determined in the presence of 10 µM 5HT. Saturation analysis was conducted by using [^3H]8-OH-DPAT at concentrations ranging from 0.3-30 nM. Following a 30 minute incubation at room temperature, the reaction was terminated by the addition of ice cold buffer and rapid filtration using a M-96 Brandel Cell Harvester through a GF/B filter presoaked for 30 minutes in 0.5% polyethyleneimine.

[1] = read-out: ST (Ki, nM, % Inh. @.1 µM)

T1 sequence (P31652 whole entry): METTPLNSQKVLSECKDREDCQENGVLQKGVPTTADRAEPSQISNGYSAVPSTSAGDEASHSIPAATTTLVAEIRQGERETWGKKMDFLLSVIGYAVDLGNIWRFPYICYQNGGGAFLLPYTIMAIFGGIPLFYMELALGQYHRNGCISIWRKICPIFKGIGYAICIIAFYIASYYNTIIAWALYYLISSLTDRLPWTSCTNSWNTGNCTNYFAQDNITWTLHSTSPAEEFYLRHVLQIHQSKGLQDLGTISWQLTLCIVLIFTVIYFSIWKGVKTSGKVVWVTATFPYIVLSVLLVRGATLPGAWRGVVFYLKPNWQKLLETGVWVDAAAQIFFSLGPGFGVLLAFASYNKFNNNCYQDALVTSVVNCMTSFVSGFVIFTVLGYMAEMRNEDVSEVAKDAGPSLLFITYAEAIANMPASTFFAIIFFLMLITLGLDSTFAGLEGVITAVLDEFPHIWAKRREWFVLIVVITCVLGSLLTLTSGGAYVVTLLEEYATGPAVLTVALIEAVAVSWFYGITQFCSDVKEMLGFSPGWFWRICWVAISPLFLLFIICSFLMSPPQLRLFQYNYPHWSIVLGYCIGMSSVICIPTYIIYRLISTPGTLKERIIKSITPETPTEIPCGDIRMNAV

Fc1ccc2[nH]cc(CCCNCC3CN(c4ccccc4)c4ccccc4O3)c2c1 (single isomer, unassigned; (+)) [Example 19] was tested, and the Ki (serotonin transporter; ST (Ki, nM, % Inh. @.1 µM)) was 40 nM.

In the case of Fc1ccc2[nH]cc(CCCNCC3CN(c4ccccc4)c4ccccc4O3)c2c1 (single isomer, unassigned; (-)) [Example 18], the Ki (serotonin transporter; ST (Ki, nM, % Inh. @.1 µM)) is reported as 34 nM.

In the case of c1ccc2c(c1)NCC(CNCCCc1c[nH]c3ccccc13)O2 (stereo not drawn) [Example 1], the Ki (human 5-HT1A receptor) is reported as 0.0069 µM and the Ki (serotonin transporter; [1]) is reported as 79 nM.

Compound CN1CC(CNCCCc2c[nH]c3ccccc23)Oc2ccccc21 (stereo not drawn) [Example 2] has a Ki (human 5-HT1A receptor) of 0.0059 µM and a Ki (serotonin transporter; ST (Ki, nM, % Inh. @.1 µM)) of 112 nM.

c1ccc(CN2CC(CNCCCc3c[nH]c4ccccc34)Oc3ccccc32)cc1 (stereo not drawn) [Example 3, (4-Benzyl-3,4-dihydro-2H-benzo[1,4]oxazin-2ylmethyl)-[3-(1H-indo-3-yl)-propyl]-amine] gave a Ki (human 5-HT1A receptor) of 0.0078 µM and a Ki (serotonin transporter; ST (Ki, nM, % Inh. @.1 µM)) of 21 nM.

In the case of CN1CC(CNCCCc2c[nH]c3ccc(F)cc23)Oc2ccccc21 (stereo not drawn) [Example 5, [3-(5-Fluoro-1H-indol-3-yl)-propyl]-(4-methyl-3,4-dihydro-2H-benzo[1,4]oxazin-2-yl-methyl)-amine], the Ki (human 5-HT1A receptor) is reported as 0.0085 µM and the Ki (serotonin transporter; [1]) is reported as 5.7 nM.

In the case of c1ccc(N2CC(CNCCCc3c[nH]c4ccccc34)Oc3ccccc32)cc1 (stereo not drawn) [Example 7, [3-(1H-Indol-3-yl)-propyl]-4-phenyl-3,(4-dihydro-2H-benzo[1,4]oxazin-2-yl-methyl)-amine], the Ki (human 5-HT1A receptor) is reported as 0.0302 µM.

For CC(C)N1CC(CNCCCc2c[nH]c3ccc(F)cc23)Oc2ccccc21 (stereo not drawn) [Example 8, [3-(5-Fluoro-1H-indol-3-yl)-propyl]-(4-isopropyl-3,4-dihydro-2H-benzo[1,4]oxazin-2yl-methyl)-amine], the Ki (human 5-HT1A receptor) was 0.0028 µM and the Ki (serotonin transporter; [1]) was 25 nM.

Compound CC(C)CN1CC(CNCCCc2c[nH]c3ccc(F)cc23)Oc2ccccc21 (stereo not drawn) [Example 10] has a Ki (human 5-HT1A receptor) of 0.00815 µM and a Ki (serotonin transporter; ST (Ki, nM, % Inh. @.1 µM)) of 85 nM.

In the case of Fc1ccc2[nH]cc(CCCNCC3CN(c4ccccc4)c4ccccc4O3)c2c1 (stereo not drawn) [Example 11, [3-(5-Fluoro-1H-indol-3-yl)-propyl]-(4-phenyl-3,4-dihydro-2H-benzo[1,4]oxazin-2-yl-methyl)-amine], the Ki (serotonin transporter; [1]) is reported as 43 nM.

Work on CCN1CC(CNCCCc2c[nH]c3ccc(F)cc23)Oc2ccccc21 (stereo not drawn) [Example 13, [3-(5-Fluoro-1H-indol-3-yl)-propyl]-(4-ethyl-3,4-dihydro-2H-benzo[1,4]oxazin-2-yl-methyl)-amine] yielded a Ki (human 5-HT1A receptor) of 0.0153 µM and a Ki (serotonin transporter; [1]) of 15 nM.

With CCCN1CC(CNCCCc2c[nH]c3ccc(F)cc23)Oc2ccccc21 (stereo not drawn) [Example 14, [3-(5-Fluoro-1H-indol-3-yl)-propyl]-(4-propyl-3,4-dihydro-2H-benzo[1,4]oxazin-2-yl-methyl)-amine] the Ki (human 5-HT1A receptor) was 0.0168 µM and the Ki (serotonin transporter; [1]) was 26 nM.

For CN1CC(CNCCCc2c[nH]c3ccc(F)cc23)Oc2cc(Cl)ccc21 (stereo not drawn) [Example 15, (7-Chloro-4-methyl-3,4-dihydro-2H-benzo[1,4]oxazin-2ylmethyl)-[3-(5-fluoro-1H-indol-3-yl)-propyl]-amine], the Ki (human 5-HT1A receptor) was 0.0752 µM and the Ki (serotonin transporter; [1]) was 44 nM.

Fc1ccc2[nH]cc(CCCNCC3CNc4ccccc4O3)c2c1 (stereo not drawn) [Example 16, (3,4-Dihydro-2H-benzo[1,4]oxazin-2ylmethyl)-[3-(5-fluoro-1H-indol-3-yl)-propyl]-amine] showed a Ki (human 5-HT1A receptor) of 0.011 µM and a Ki (serotonin transporter; [1]) of 16 nM.

COc1ccc2c(c1)OC(CNCCCc1c[nH]c3ccc(F)cc13)CN2 (stereo not drawn) [Example 17] showed a Ki (human 5-HT1A receptor) of 0.103 µM and a Ki (serotonin transporter; [1]) of 15 nM.

Fc1ccc2[nH]cc(CCCNCC3COc4ccccc4N3)c2c1 (stereo not drawn) [Example 20, (3,4-Dihydro-2H-benzo[1,4]oxazin-3-yl-methyl)-[3-(5-fluoro-1H-indol-3-yl)propyl]-amine] gave a Ki (human 5-HT1A receptor) of 0.0123 µM.
